Test results as given in patent US6576239B1, “Angiogenic homing molecules and conjugates derived therefrom” (The Burnham Institute, priority 1996, dated 2003).
Like-named read-outs stand apart in the source and are kept apart here. No end group written: not given here.

Assays:
[1] = tested on: MDA-MB-435 human breast carcinoma cells; format: cell-based; conditions: for cell killing: agents not removed after 30 min, 24 hr
Method: MDA-MB-435 human breast carcinoma cells were plated at 1×10^5 cells/well in 96 well plates. Cells were incubated with increasing amounts of doxorubicin, the doxorubicin/[…] (SEQ ID NO: 1) conjugate, or the doxorubicin/GACVFSIAHECGA (SEQ ID NO: 19; control) conjugate (0.1 to 10 μg/well of doxorubicin-equivalent) for either 30 min or overnight. […] The number of surviving cells was determined at 24hours with crystal violet staining (see Koivunen et al., supra, 1994).

[2] = tested on: MDA-MB-435 breast carcinoma; assay: Tumor therapy of breast tumor bearing mice with doxorubicin/peptide conjugates; format: in vivo, BALB/c nu/nu mice; conditions: for gross examination of tumors (skin ulceration, tumor necrosis): 5 μg doxorubicin equivalent; for effect on tumor growth: relative to treatment with the vehicle, alone
Method: Female 2-month old BALB/c nu/nu mice (Harlan Sprague Dawley; San Diego Calif.) were used for these studies and were cared for according to the Burnham Institute animal facility guidelines. MDA-MB-435 breast carcinoma cells (Price et al., Cancer Res. 50:717-721 (1993)) were injected in the mammary fat pad of the nude mice and tumor growth was monitored (Pasqualini et al., supra, 1997). Tumors were allowed to grow to a size of about 1 cm^3 (about 5% of the mouse's body weight) before starting the treatment experiments, except for the toxicity experiments as discussed below.
Weekly doxorubicin/peptide conjugate or control treatments (5 μg/mouse/week of doxorubicin-equivalent) were administered intravenously. In some experiments, as indicated, a dose of 30 μg/mouse was administered every 3 weeks. Treatment with doxorubicin, alone, is referred to as “dox control” and treatment with doxorubicin conjugated to the non-tumor homing control peptide, […] As an additional control, in some experiments the tumor homing peptide was mixed with doxorubicin, without linking, and the mixture was administered to tumor bearing mice. Such treatment produced results that were not statistically different from those obtained with the above described dox controls.
Mice were anesthetized with a tribromoethanol-based anesthetic mixture (AVERTIN; Papaioannou and Fox, Lab. Anim. 43:189-192 (1993)) before each treatment. Anesthetization facilitated the tail vein injections (final volume, 200 μl) and allowed precise serial three dimensional tumor size measurements. Tumor volume calculations were based on the equation for the volume of an ovaloid: V= 4/3 (Πabc), where a, b, and c are ½ of the measured diameters in each of the three dimensions.

[3] = Acute toxicity in mice bearing extremely large tumors
breast tumor [4] = assay: Competition of phage tumor homing by coinjection of free peptide; format: in vivo, mice; conditions: for effect of coinjected free peptide on homing of CDCRGDCFC phage: coinjection with CDCRGDCFC (RGD) phage; for effect of co-injected peptide on accumulation of NGR phage in breast carcinoma xenografts: phage expressing CNGRCVSGCAGRC, NGRAHA or CVLNGRMEC
Text: Selective homing can be distinguished from nonspecific binding, however, by detecting differences in the abilities of different individual phage to home to a tumor. For example, selective homing can be identified by combining a putative tumor homing molecule such as a peptide expressed on a phage with a large excess of non-infective phage or with about a five-fold excess of phage expressing unselected peptides, injecting the mixture into a subject and collecting a sample of the tumor. […] In addition, nonspecific localization can be distinguished from selective homing by performing competition experiments using, for example, phage expressing a putative tumor homing peptide in combination with an excess amount of the “free” peptide (Example IV).
The various peptides, including RGD- and NGR-containing peptides, generally were bound to the tumor blood vessels. The minimal cyclic NGR peptide, CNGRC (SEQ ID NO: 8), was synthesized based on the CNGRCVSGCAGRC (SEQ ID NO: 3) sequence. When the CNGRC (SEQ ID NO: 8) peptide was co-injected with phage expressing either CNGRCVSGCAGRC (SEQ ID NO: 3), NGRAHA (SEQ ID NO: 6) or CVLNGRMEC (SEQ ID NO: 7), accumulation of the phage in the breast carcinoma xenografts was inhibited. […] (SEQ ID NO: 1) peptide, even when administered in amounts up to ten times higher than those that inhibited the homing of the NGR phage. In comparison, the […]

human αv-integrins = conditions: cited from earlier work
[5] = tested on: Human 435 breast carcinoma tumor; assay: In vivo targeting of phage expressing a peptide to a tumor (phage quantitated in organs); set-up: species or system mice; conditions: mouse melanoma, human Kaposi's sarcoma xenograft
Method: Human 435 breast carcinoma cells were inoculated into the mammary fat pad of nude mice. When the tumors attained a diameter of about 1 cm, phage expressing a specific RGD-containing peptide were administered to the tumor bearing mouse. Similar results
1×10^9 phage expressing the RGD-containing peptide, […] (SEQ ID NO: 1; see, Koivunen et al., supra, 1995) or control (insertless) phage were injected intravenously (iv) into the mice and allowed to circulate for 4 min. The mice then were snap frozen or perfused through the heart while under anesthesia, and various organs, including tumor, brain and kidney, were removed and the phage present in the organs was quantitated (see U.S. Pat. No. 5,622,699; Pasqualini and Ruoslahti, supra, 1996).
Approximately 2-3 times more phage expressing the […] (SEQ ID NO: 1) peptide were detected in the breast tumor as compared to brain and kidney, indicating the […] […] In a parallel study, unselected phage, which express various, diverse peptides, were injected into tumor-bearing mice and various organs were examined for the presence of phage. Far more phage were present in kidney and, to a lesser extent, brain, as compared to the tumor. Thus, the 80-fold more RGD-expressing phage than unselected phage concentrated in the tumor.

B16B15b mouse melanoma = assay: In vivo panning against a melanoma tumor; set-up: species or system mice; conditions: 89 cloned phage recovered from B16B15b tumors after three rounds
Method: Tumors were transplanted into mice as described in Examples II and III, below. A mixture of phage libraries containing 1×10^9 to 1×10^14 TU was diluted in 200 μl DMEM and injected into the tail vein of anesthetized mice (AVERTIN (0.015 ml/g); see U.S. Pat. No. 5,622,699; Pasqualini and Ruoslahti, supra, 1996). After 1-4 minutes, mice were snap frozen in liquid nitrogen. To recover the phage, carcasses were partially thawed at room temperature for 1 hr, tumors and control orqans were collected and weighed, then were ground in 1 ml DMEM-PI (DMEM containing protease inhibitors (PI); phenylmethylsulfonyl fluoride (PMSF; 1 mM), aprotinin (20 μg/ml), leupeptin (1 μg/ml)).
Individual colonies containing phage recovered from a tumor were grown for 16 hr in 5 ml NZY/tet. The bacterial cultures obtained from the individual colonies were pooled and the phage were purified and re-injected into mice as described above for a second round of in vivo panning. In general, a third round of panning also was performed. Phage DNA was purified from individual bacterial colonies obtained from the final round of in vivo panning and the DNA sequences encoding the peptides expressed by selected phage were determined (see Koivunen et al., supra, 1994b).
Mice bearing a melanoma were produced by implantation of B16B15b mouse melanoma cells, which produce highly vascularized tumors. […]

breast tumor [6] = assay: Viability of tumor cells obtained from tumors of treated mice; format: in vivo; conditions: 30 μg equivalent iv, tumors removed after five days, cells counted 24 hours and 7 days after plating
Method: In addition, the viability of tumor cells obtained from tumors of mice treated with a tumor homing peptide/doxorubicin conjugate was compared to that of tumors from mice treated with free doxorubicin. In these experiments, breast tumor bearing mice were size matched with regard to the tumors, then treated intravenously with 30 μg equivalent of doxorubicin/CDCRGDCFC (SEQ ID NO: 1) or of free doxorubicin. Five days after treatment, the mice were euthanized and the tumors were removed. The tumor pairs were weighed and ground and the cell suspensions were plated (2 g tumor tissue per 150 mm plate).
Cell numbers were determined at 24 hours and 7 days after plating. Viability of tumor cells from the tumors of mice receiving the doxorubicin/CDCRGDCFC (SEQ ID NO: 1) conjugate was about 3 fold less than cells from tumors of mice treated with the free doxorubicin.

[7] = 30 min exposure, 0.1 to 10 μg/well doxorubicin-equivalent, survivors counted at 24 hours
[8] = 200 μg/mouse, tumors about 25% of body weight
[9] = 5 μg/mouse/week doxorubicin-equivalent iv
[10] = 5 μg/mouse/week iv, t test, p<0.0001

For `COc1cccc2c1C(=O)c1c(O)c3c(c(O)c1C2=O)C[C@@](O)(C(=O)CO)C[C@@H]3O[C@H]1C[C@H](N)[C@H](O)[C@H](C)O1` [doxorubicin, reference compound], the cell death [1, 7] was “cell death was present only in the cultures treated with the doxorubicin/[…]”, the cell killing [1] was “the cells were killed by all of the treatments” and the “gross examination of tumors (skin ulceration, tumor necrosis)” value (“gross examination of tumors” for short) [2] was “no such signs were observed”. For the same compound, the “effect on tumor growth” value [2] was “essentially no effect on tumor growth” and the “time to death after treatment” value [3, 8] was no more than 48 h.
With ACDCRGDCFCG the “effect of coinjected free peptide on amount of RGD phage in the tumor” value (breast tumor [4]; 500 μg free peptide coinjected with phage expressing CDCRGDCFC) was “reduced the amount of phage in the tumor by about tenfold”.
For CDCRGDCFC, the “effect of coinjected free peptide on homing of CDCRGDCFC phage” value (breast tumor [4]) was “greatly reduced tumor homing of the RGD phage”, the “amount needed to inhibit homing of NGR phage relative to CNGRC peptide” value (breast tumor [4]; higher than that of the CNGRC peptide) was 5 to 10 fold and the “effect of co-injected peptide on accumulation of NGR phage in breast carcinoma xenografts” value (breast tumor [4]) was “partially inhibited”. The “binding to human αv-integrins” value (human αv-integrins) was “binds to human αv-integrins”.
With CGSLVRC the “effect of coadministered free peptide on homing of CGSLVRC phage” value (breast tumor [4]; mouse, in vivo) was “inhibited”.
With CLSGSLSC the “tumor homing of phage/peptide” value [5] was “also homed to a breast tumor and to Kaposi's sarcoma” and the “share of the clones sequenced” value (B16B15b mouse melanoma) was 52%.
For CNGRC, the “effect of coinjected free peptide on homing of CDCRGDCFC phage” value (breast tumor [4]) was “did not inhibit” and the “effect of co-injected peptide on accumulation of NGR phage in breast carcinoma xenografts” value (breast tumor [4]) was “inhibited”.
In the case of CNGRCVSGCAGRC, the “tumor homing of phage/peptide” value [5] is reported as “also homed in vivo to a melanoma and to a Kaposi's sarcoma, but not to nontumor tissues”.
With GRGESP [reference compound] the “effect of coinjected free peptide on amount of RGD phage in the tumor” value (breast tumor [4]; 500 μg free peptide coinjected with phage expressing […]) was “essentially had no effect”.
For WGTGLC, the “share of the clones sequenced” value (B16B15b mouse melanoma) was 25%.
For “doxorubicin/CDCRGDCFC: doxorubicin coupled by EDC/NHS to the tumor homing peptide CDCRGDCFC (SEQ ID NO: 1) (cysteine pairing not given here; also: doxorubicin conjugate via EDC/NHS, site not given here)”, the cell death [1, 7] was “cell death was present”, the cell killing [1] was “the cells were killed by all of the treatments” and the “gross examination of tumors” value [2] was “marked skin ulceration and tumor necrosis”. For the same compound, the survival [2, 9] was “survived beyond the time when the dox control and conjugate control mice had died”, the “tumor size compared with control groups” value [2, 9] was “significantly smaller tumors” and the “pulmonary metastasis vs dox control” value [2, 10] was “a lower incidence of pulmonary metastasis and fewer metastatic lesions”. For the same compound, the “spread to regional lymph nodes vs dox control” value [2, 10] was “less spread to regional lymph nodes”, the “histopathological analysis of tumor vasculature” value ([2]; compared to the dox control group) was “pronounced destruction of the vasculature in the tumors” and the “time remaining alive after dox control and conjugate control mice had died” value ([2]; dose escalation, 30 μg/mouse every three weeks for three cycles) was “more than 6 months”. For the same compound, the “viability of tumor cells, fold less than after free doxorubicin” value (breast tumor [6]) was “about 3 fold” and the survival after treatment [3, 8] was “survived for longer than one week”.
In the case of “doxorubicin/CNGRC (cysteine pairing not given here; also: doxorubicin conjugate)”, the survival [2, 9] is reported as “marked effect on survival”, the “tumor size compared with control groups” value [2, 9] is reported as “significantly smaller” and the “effect on tumor growth” value [2] is reported as “almost completely suppressed tumor growth”. The “toxicity relative to free doxorubicin” value ([3]; mouse, in vivo) was “less toxic than free doxorubicin”.
With “doxorubicin/GACVFSIAHECGA: doxorubicin conjugated to the non-tumor homing control peptide GACVFSIAHECGA (SEQ ID NO: 19) (cysteine pairing not given here; also: doxorubicin conjugate) [reference compound]” the cell death [1] was “cell death was present only in the cultures treated with the doxorubicin/[…]”, the cell killing [1] was “the cells were killed by all of the treatments” and the “gross examination of tumors” value [2] was “no such signs were observed”. For the same compound, the “results as compared to dox control groups” value [2, 9] was “not significantly different” and the “effect on tumor growth” value [2] was “essentially no effect on tumor growth”.
